Test results taken from EPA's ToxValDB 9.5.
“And” between values parts separate entries of the source, which are not always exact repeats. Equal values may be shown once.

How the values were obtained:
Rattus norvegicus [1] = details: oral, M/F
Mus musculus = details: acute; injection; intravenous
Rattus norvegicus [2] = test system: Rattus norvegicus
Rattus norvegicus [3] = details: oral, M/F, neurological
Oryctolagus sp. = details: acute
Rattus norvegicus [4] = details: for LD50 / LC50: acute
Rattus norvegicus [5] = details: oral
[6] = developmental, reduced body weight gain in parental animals and pups
[7] = chronic, duration: 2 years, diet, increased liver weight
[8] = reproduction developmental, duration: 39 days, oral, gavage, generation: F0
[9] = short-term, duration: 28 days, oral, gavage
[10] = subchronic, duration: 13 weeks, gavage, decreased testis weight and altered spermatogenesis in males. + Increased heart weight in females and males
[11] = reproduction developmental, reduced body weight gain in f1 females
[12] = short-term, duration: 28 days, oral, diet, Sprague-Dawley
[13] = short-term, duration: 28 days, gavage, M, Sprague-Dawley, Clinical Observation: Locomotor activity decrease, Salivation + Blood Chemistry: Ch E decrease

SMILES: CCN(CC)C(=O)C(C)Oc1cccc2ccccc12 (centres undefined) [Napropamide]
- LEL (Rattus norvegicus [1]; [6]): 100 mg/kg-day
- NOEL (Rattus norvegicus [1]; [6]): 30 mg/kg-day

SMILES: CCCCCCCCCCCCCCC [Pentadecane]
- LD50 (Mus musculus): 3490 mg/kg

SMILES: CC1(C)C(C=C(Cl)Cl)C1C(=O)OCc1cccc(Oc2ccccc2)c1 (centres undefined) [Permethrin]
- NOEL (Rattus norvegicus [2]; Hershberger, duration: 10 days, oral, gavage, Sprague-Dawley, inactive + Negative + Negative + neither + no effects on PPS, AST, testis/epididymal wt, serum testosterone, and liver wt increased 11% at …): 120 mg/kg-day
- LEL (Rattus norvegicus [2]; uterotrophic, duration: 3 days, injection, subcutaneous, Active): 800 mg/kg-day
- NOAEL (Rattus norvegicus [3]; acute, duration: 1 days, gavage, Long-Evans): 25 mg/kg-day
- NOAEL (Rattus norvegicus [3]; subchronic, duration: 13 weeks, diet, Sprague-Dawley): 15.5 mg/kg-day
- LEL (Rattus norvegicus [1]; [7]): 25 mg/kg-day
- NOEL (Rattus norvegicus [1]; [7]): 5 mg/kg-day

SMILES: COC(=O)Nc1cccc(OC(=O)Nc2cccc(C)c2)c1 [Phenmedipham]
- NOAEL (Rattus norvegicus [1]; chronic, duration: 2 years, diet, no effects): 25 mg/kg-day

SMILES: CC(C)=CC1C(C(=O)OCc2coc(Cc3ccccc3)c2)C1(C)C (centres undefined) [Resmethrin]
- LEL (Rattus norvegicus [1]; reproduction developmental, reproductive toxicity): 25 mg/kg-day

SMILES: CCCCCCCCCCCCOC(=O)CS(=O)(=O)[O-].[Na+] [Sodium 2-(dodecyloxy)-2-oxoethane-1-sulphonate]
- LD50 (Oryctolagus sp.; dermal, occlusive, New Zealand): > 2000 mg/kg
- LD50 (Rattus norvegicus [4]; oral, Wistar): 1000 mg/kg
- LD50 (Rattus norvegicus [4]; oral, gavage, Sprague-Dawley): > 2000 mg/kg
- NOAEL (Rattus norvegicus [4]; reproduction developmental, duration: 39 days, oral, gavage): 1000 mg/kg-day
- LOAEL (Rattus norvegicus [4]; [8]): 1000 mg/kg-day
- NOAEL (Rattus norvegicus [4]; [8]): 200 mg/kg-day
- LOAEL (Rattus norvegicus [4]; [9]): 800 mg/kg-day
- NOAEL (Rattus norvegicus [4]; [9]): 200 mg/kg-day

SMILES: [Na+].[S-]c1nc2ccccc2s1 [Sodium 2-mercaptobenzothiolate]
- LD50 (Oryctolagus sp.; dermal): > 7940 mg/kg
- LD50 (Oryctolagus sp.; dermal, occlusive, New Zealand): > 7940 mg/kg
- LC50 (Rattus norvegicus [4]; inhalation): > 6.5 mg/L
- LC50 (Rattus norvegicus [4]; inhalation, Sprague-Dawley): > 1.3 mg/L
- LD50 (Rattus norvegicus [4]; oral): 4350 mg/kg
- LD50 (Rattus norvegicus [4]; oral, Sprague-Dawley): 1480 mg/kg and 4350 mg/kg

SMILES: COc1c(Cl)ccc(Cl)c1C(=O)[O-].[Na+] [Sodium dicamba]
- LD50 (Oryctolagus sp.; dermal, occlusive, New Zealand): > 400 mg/kg
- LD50 (Rattus norvegicus [4]; oral, Sprague-Dawley): > 1000 mg/kg

SMILES: O=C([O-])CF.[Na+] [Sodium fluoroacetate]
- LOAEL (Rattus norvegicus [1]; [10]): 0.2 mg/kg-day
- NOAEL (Rattus norvegicus [1]; [10]): 0.05 mg/kg-day

SMILES: CNC(=O)N(C)c1nnc(C(C)(C)C)s1 [Tebuthiuron]
- LEL (Rattus norvegicus [1]; [11]): 14 mg/kg-day
- NOEL (Rattus norvegicus [1]; [11]): 7 mg/kg-day

SMILES: C[CH2][Pb]([CH2]C)([CH2]C)[CH2]C [Tetraethyl lead]
- LOAEL (Rattus norvegicus [1]; subchronic, histopathology: liver and thymus): 0.0017 mg/kg-day

SMILES: CCCCCCCCC(=O)OCC(CC)(COC(=O)CCCCCCCC)COC(=O)CCCCCCCC [Trimethylolpropane trinonanoate]
- LD50 (Oryctolagus sp.; dermal): > 2000 mg/kg
- LD50 (Rattus norvegicus [4]; oral, gavage, Crl:CD(SD)): > 2000 mg/kg
- LD50 (Rattus norvegicus [4]; oral, gavage, Sherman Wistar): > 5000 mg/kg
- LD50 (Rattus norvegicus [4]; oral, gavage, Sprague-Dawley): > 2000 mg/kg
- LD50 (Rattus norvegicus [4]; oral, gavage, Wistar): > 2000 mg/kg

SMILES: O=P(OC(CCl)CCl)(OC(CCl)CCl)OC(CCl)CCl [Tris(1,3-dichloro-2-propyl) phosphate]
- LD50 (Oryctolagus sp.; dermal): > 4640 mg/kg
- LD50 (Oryctolagus sp.; oral, gavage, Dutch-belted): 6800 mg/kg
- LD50 (Rattus norvegicus [4]; oral, gavage, Sprague-Dawley): 3160 mg/kg
- NOAEL (Rattus norvegicus [4]; chronic, duration: 12 months, oral, diet, Sprague-Dawley): 5 mg/kg-day
- NOAEL (Rattus norvegicus [4]; developmental, duration: 10 days, oral, gavage, Sprague-Dawley): 100 mg/kg-day
- NOAEL (Rattus norvegicus [4]; reproduction developmental, duration: 10 days, oral, gavage, F, Sprague-Dawley): 25 mg/kg-day

SMILES: Cc1ccc(OP(=O)(Oc2ccc(C)cc2)Oc2ccc(C)cc2)cc1.Cc1cccc(OP(=O)(Oc2cccc(C)c2)Oc2cccc(C)c2)c1.Cc1ccccc1OP(=O)(Oc1ccccc1C)Oc1ccccc1C [Tris(methylphenyl) phosphate]
- LD50 (Oryctolagus sp.; dermal): > 10000 mg/kg
- LC50 (Rattus norvegicus [4]; Inhalation, Sprague-Dawley): > 5.2 mg/L
- LC50 (Rattus norvegicus [4]; inhalation, Wistar): < 200 mg/L
- LD50 (Rattus norvegicus [4]; oral, gavage, Wistar): > 20000 mg/kg
- LOAEL (% diet) (Rattus norvegicus [4]; [12]): 0.5
- NOAEL (% diet) (Rattus norvegicus [4]; [12]): 0.1
- NOAEL (Rattus norvegicus [5]; [13]): 200 mg/kg-day
- NOEL (Rattus norvegicus [5]; [13]): < 40 mg/kg-day
- NOEL (Rattus norvegicus [5]; subchronic, duration: 13 weeks, diet, F, Fischer 344, Clinical Observation: Emaciation + Body Weight Changes: decrease + Food Consumption: decrease + Hematology: Hct decrease, RBC decrease, Hgb …): 65 mg/kg-day
- NOEL (Rattus norvegicus [5]; subchronic, duration: 13 weeks, diet, M/F, Fischer 344, Clinical Observation: Emaciation + Body Weight Changes: decrease + Food Consumption: decrease + Hematology: Hct decrease, RBC decrease, Hgb …): < 86.4 mg/kg-day
- NOEL (Rattus norvegicus [5]; subchronic, duration: 13 weeks, gavage, M/F, Fischer 344, Body Weight Changes: decrease + Hematology: Hct decrease, Hgb decrease, RBC decrease + Blood Chemistry: Ch E decrease + Absolute Organ …): < 50 mg/kg-day
